# Measurements reported in publication PMC13224100, “Esterase-Responsive Mitochondria-Targeted Hydropersulfide Donors Mitigate Doxorubicin Cardiotoxicity While Preserving Anticancer Activity” (Angewandte Chemie (International ed. in English), 2025).
# Assays:
# [1] = Aqueous stability of RSSH precursors in PBS; assay type: physicochemical; details: PBS pH 7.4, 37 °C, over 9 h
# Procedure: We synthesized AST-2 as an esterase-sensitive RSSH donor via reaction of N-acetylpenicillamine methyl ester with methoxycarbonyl sulfenyl chloride in dichloromethane at 0 °C, affording the product in 72% yield (see Scheme S1). We first evaluated the aqueous stability of AST-2 in phosphate-buffered saline (PBS, pH 7.4) at 37 °C.
# APT-1 was synthesized in 93% overall yield via a one-pot two-step sequence: N-acetylpenicillamine methyl ester was reacted with chlorocarbonylsulfenyl chloride to afford an S-perthiocarbonyl chloride intermediate, which was subsequently treated with 2-acetoxy-N-methylethan-1-aminium chloride in the presence of triethylamine (see Supporting Information).
# We first evaluated the aqueous stability of the mitochondria-targeted analogs AST-2-TPP and APT-1-TPP. […] APT-1-TPP similarly retained excellent stability, with < 5% degradation over 41 h (Figure S1D).
# [2] = Cytoprotection against DOX-induced toxicity, CCK-8 assay; assay type: cell-based; details: rat, H9c2 cells; DOX 5 μM, 24 h, CCK-8; read-out: cell viability, DOX alone
# Procedure: (§1) We evaluated the cytoprotective effects of RSSH precursors against DOX-induced cardiotoxicity in H9c2 cardiomyoblasts. First, we assessed the cytotoxicity of the RSSH donors (AST-2, APT-1, AST-2-TPP, and APT-1-TPP) using the CCK-8 assay.[24] […] To evaluate cytoprotection, H9c2 cells were pretreated with RSSH donors for 4 h, followed by 24 h co-treatment with DOX (5 μM). As expected, DOX alone reduced cell viability to ca. 50% (Figure 4a). […] Although both compounds were protective, no enhancement of potency was observed upon TPP conjugation. […] A distinctive feature of our study is the direct comparison between mitochondria-targeted and non-targeted RSSH donors. […] TPP conjugation only modestly enhances the cytoprotective effects of RSSH donors under our experimental conditions. This outcome may reflect the intrinsic high efficacy of non-targeted RSSH donors, thereby limiting the additional benefit of mitochondrial targeting.
# (§2) Figure 4. Protective effects of RSSH donors against DOX-induced cytotoxicity in H9c2 cells. Cells were pretreated with RSSH donors for 4 h, followed by exposure to DOX (5 μM) for an additional 24 h. Cell viability was assessed using the cell counting Kit-8 (CCK-8) assay. Results are expressed as mean ± SEM, n = 3; *P < 0.05, **P < 0.01, ***P < 0.001, ****P < 0.0001. Ctl = vehicle-treated group (0.01% DMSO in medium). […]
# (§3) Cytoprotective Effects of RSSH Donors against Doxorubicin Toxicity
# (§4) Cytoprotective studies were performed as previously described.[8] Briefly, H9c2 cells, HepG2 cells, MDA-MB-468 cells, and MCF-7 cells were seeded at a density of 7 x 10^3 cells/well. […] Additionally, in the vehicle control group, cells were treated with medium (DMEM with 10% FBS) containing 0.01% DMSO only. The cells were then further incubated for an additional 4 h before being treated with DOX (10 μL/well, with final concentration of 5 μM). After a 24 h co-incubation with DOX, each well was carefully washed three times with PBS (pH 7.4) and 100 μL o f F B S-free medium containing 10% v/v CCK-8 (Dojindo) was added. The plates were then incubated for 1-2 h before measuring absorbance at […]
# (§5) The relative % cell viability was calculated as 100 times the ratio of Abs450 (RSSH donor + DOX-exposed) to Abs450 (vehicle, non-DOX-exposed). Each treatment condition was performed in 6 technical replicates per biological replicate, and the experiment was independently repeated three times (n = 3 biological replicates). Data are presented as mean ± SEM. […]
# H9c2 cells [3] = assay: Intracellular ATP levels (CellTiter-Glo) under DOX; assay type: cell-based; details: DOX 5 μM, 24 h
# Procedure: (§6) Figure 6. a) Basal sulfane sulfur (SS) levels in H9c2 cardiomyocyte, MDA-MB-468, MCF-7, and HepG2 cell lines as detected by SSP4 fluorescence. b) Representative images and c) basal levels of mitochondrial membrane potential (MMP) in H9c2 and cancer cells (MDA-MB-468, MCF-7, and HepG2). d) Impact of APT-1 (25 μM) or APT-1-TPP (25 μM) on MMP in DOX (5 μM)-treated (d) H9c2 and e) HepG2 cells. Impact of APT-1 (25 μM) and APT-1-TPP (25 μM) on ATP levels in DOX (5 μM)-treated f) H9c2 and g) HepG2 cells. Results are expressed as mean ± SEM, n = 3–6; *P < 0.05, **P < 0.01, ***P < 0.001, ****P < 0.0001. Significances in (a) and (c) are presented with respect to H9c2 cells.
# (§7) We then examined how RSSH donors influence MMP during DOX exposure. As expected, DOX alone induced mitochondrial depolarization in H9c2 cells, reducing MMP to ca. 50% of control (Figure 6d). […] To complement these observations, we quantified intracellular ATP levels as a functional readout of mitochondrial activity. […]
# Briefly, H9c2 cells and HepG2 cells were seeded in 96-well white-bottom plate (Alkali Scientific, SKU:TPW9096, TC-treated) at 5000 cells/well. After treatment (Ctrl, 5 μM DOX alone, 4 h pretreatment of 25 μM APT-1 + 24 h cotreatment with 5 μM DOX, and 4 h pretreatment of 25 μM APT-1-TPP + 24 h cotreatment with 5 μM DOX, in clear DMEM medium with 10% FBS), cells were equilibrated at rt for 30 min before CellTiter-Glo® reagent was added to each well. Plates were then placed on an orbital shaker for 2 min and incubated at rt for another 20 min.
# Chemiluminescence was measured using Tecan plate reader (SPARK Part No. 30124664 Version 1.7, serial No. 1909010319). Cellular AT P concentration was calculated based on the AT P calibration curve and normalized to cell count. […] Each treatment condition was performed in 6 technical replicates per biological replicate, and the experiment was independently repeated three times (n = 3 biological replicates).
# Data are presented as mean ± SEM. […]
# H9c2 cells [4] = assay: Mitochondrial membrane potential (TMRM) under DOX; assay type: cell-based; details: DOX 5 μM, 24 h, TMRM
# Procedure: as §6, §7
# Mitochondrial Membrane Potential Measurements
# Mitochondrial membrane potential was measured using Image-iT™ TMRM Reagent (Cat#I34361, Invitrogen, USA) according to the manufacturer's protocols. […]
# The cells were incubated for an additional 24 h. After completion of treatment, cells were washed with a warm clear DMEM medium (with 10% FBS) and incubated in culture media containing TMRM (working solution 100 nM) for 30 min at 37 °C. Cells were then washed with a warm clear FBS-free DMEM medium (3 times) before imaging. Images were obtained with Zeiss LSM 800 with AiryScan Confocal (λex = 548 nm, λem = 573 nm). During each experiment, 6 field images were obtained for each experimental group. Images were analyzed using Image J software, and all cells in each image were selected for fluorescence intensity measurement (cell-free space was also measured as blank). H9c2 signal intensity was set to 100% and signal intensity for all the other cell lines was shown as a percentage of that of H9c2.
# The experiments were independently repeated three times (n = 3 biological replicates). Data are […]
# Figure S24. Representative TMRM images for mitochondrial membrane potential (MMP) in H9c2 and HepG2 cells with APT-1 and APT-1-TPP treatment under DOX stress. Ctl = vehicle (medium with 0.01% […]
# (1 picture or pasted object on this page, not shown here)
# H9c2 cells [5] = assay: Cytoprotection against DOX-induced toxicity, CCK-8 assay; assay type: cell-based; details: 4 h pretreatment, then 24 h co-treatment with DOX 5 μM
# Procedure: as §1, §2, §3, §4, §5
smiles,measurement,setting,value
"COC(=O)C(NC(C)=O)C(C)(C)SSC(=O)Oc1ccccc1 (centres unmarked) [AST-1, reference compound]",decomposition (aqueous stability),[1],complete degradation
"COc1cccc2c1C(=O)c1c(O)c3c(c(O)c1C2=O)C[C@@](O)(C(=O)CO)C[C@@H]3O[C@H]1C[C@H](N)[C@H](O)[C@H](C)O1 [DOX, Doxorubicin]","viability at 24 h, 5 µM",[2],~50%
same,"ATP level, DOX alone",H9c2 cells [3],significantly depleted ATP
same,"MMP, DOX alone",H9c2 cells [4],ca. 50 % of control
"COC(=O)[C@@H](NC(C)=O)C(C)(C)S [Pen-SH, N-acetyl penicillamine methyl ester, reference compound]",protection against DOX-induced cytotoxicity,H9c2 cells [5],failed to mitigate DOX-induced cytotoxicity
